Reference: patent publication US7087394B2, “Methods and compositions for treating and diagnosing diabetes and related diseases involving beta-TRP” (Metabolex, Inc., priority 2003, dated 2006)
“Also recorded” adds a separate entry of the source.

Experiments:
βTRP = biological target: T1, βTRP (Homo sapiens, UniProt Q9NZQ8); assay: Membrane potential (MP) assay in βTRP-CHO cells, FLEXStation with Membrane Potential Dye; type: cell-based; conditions: for depolarization / MP response in βTRP-CHO cells: βTRP-CHO cell line (A2-18); for EC50: βTRP-CHO cells, membrane potential, read-out: estimated EC50 of depolarization
T1 construct: expressed in transfected cells; control line A1-5
T1 sequence (Q9NZQ8 1-1165): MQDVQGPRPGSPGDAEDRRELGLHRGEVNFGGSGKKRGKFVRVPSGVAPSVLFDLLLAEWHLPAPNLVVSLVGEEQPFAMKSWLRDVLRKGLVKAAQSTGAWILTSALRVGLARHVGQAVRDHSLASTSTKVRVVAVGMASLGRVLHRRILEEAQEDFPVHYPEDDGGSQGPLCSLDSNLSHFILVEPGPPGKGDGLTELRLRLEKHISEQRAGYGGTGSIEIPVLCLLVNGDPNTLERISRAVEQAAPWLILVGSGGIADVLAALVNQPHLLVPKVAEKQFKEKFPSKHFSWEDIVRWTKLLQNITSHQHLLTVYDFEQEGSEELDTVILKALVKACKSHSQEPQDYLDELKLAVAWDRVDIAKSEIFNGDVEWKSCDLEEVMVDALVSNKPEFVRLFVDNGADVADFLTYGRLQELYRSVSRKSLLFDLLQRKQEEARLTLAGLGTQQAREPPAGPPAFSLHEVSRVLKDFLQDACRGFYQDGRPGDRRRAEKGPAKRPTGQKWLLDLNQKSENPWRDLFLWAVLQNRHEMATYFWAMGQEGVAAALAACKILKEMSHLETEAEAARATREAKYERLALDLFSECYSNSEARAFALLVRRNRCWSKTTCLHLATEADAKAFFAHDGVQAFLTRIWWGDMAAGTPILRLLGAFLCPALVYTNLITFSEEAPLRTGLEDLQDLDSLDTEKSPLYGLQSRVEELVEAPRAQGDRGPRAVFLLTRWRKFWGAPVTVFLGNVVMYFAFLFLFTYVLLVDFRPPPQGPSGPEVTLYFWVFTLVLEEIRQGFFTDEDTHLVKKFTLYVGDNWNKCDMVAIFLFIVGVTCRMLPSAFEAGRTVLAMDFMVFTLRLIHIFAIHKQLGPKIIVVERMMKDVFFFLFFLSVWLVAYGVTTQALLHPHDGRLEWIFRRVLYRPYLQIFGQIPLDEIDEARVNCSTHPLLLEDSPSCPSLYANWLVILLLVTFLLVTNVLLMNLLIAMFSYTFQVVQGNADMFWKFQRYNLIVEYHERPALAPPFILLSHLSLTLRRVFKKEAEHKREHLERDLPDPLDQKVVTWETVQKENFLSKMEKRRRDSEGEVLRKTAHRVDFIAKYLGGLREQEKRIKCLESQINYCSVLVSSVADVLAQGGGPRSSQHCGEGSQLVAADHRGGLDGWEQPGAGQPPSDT
Experimental: (§1) Control and βTRP-CHO cells were plated in 96-well plates 2-d before the assay. [Ca^2+]i and membrane potential (MP) responses to ATP (30 μM added at 20 sec) were measured with FLEXStation® and correspondent dyes from Molecular Devices (Sunnyvale, Calif.).
(§2) The following protocol is optimized for the measurement of membrane potential (MP) in 96-well format using Molecular Devices' Membrane Potential Dye (Cat #R-8034) on the FLEXStation (Molecular Devices). It is expected to be applicable or adaptable to the 384-well format assay with the FLIPR^384 system.
A CHO-K1 based stable cell line expressing βTRP (designated “Line A2-18” herein) is used for βTRP high throughput screening according to the follow protocol: • 1. Seed A2–18 βTrp-CHO cell and the control line (A1-5) to 96-well plates. • 2. Grow the cells for 24–48 h in DMEM medium to 85–95% confluency. • 3. Prepare following reagents immediately before the assay: • i. Assay buffer: dilute Component B of the FLIPR® assay kit and adjust pH to 7.4 with 1 N NaOH. No probenecid was needed. • ii. MP dye: suspend a vial of Component A of the FLIPR® assay kit with 10 ml of the assay buffer. • iii. Compound solutions: dilute DMSO stocks of the testing compounds to a 5× solution with the assay buffer. Raise Ca^2+ concentration in the compound solutions to 12.5 mM with 1 M CaCl2. • 4. Carefully remove the culture medium from all wells. • 5. Add 50 μl assay buffer and 50 μl MP dye. • 6. Incubate the plates at 37° C. for 30–60 minutes. • 7. Set the FLEXStation to MP assay mode and to 37° C. • 8. Transfer the cell plate and compound plate to FLEXStation. • 9. Record baseline for 18 sec (Ex 530, Em560). • 10. Add the 5× compound solutions to the cells and read another 100 sec. • 11. Save and analyze data. Reagent List • 1. Assay buffer: Hank's Balanced Salt Solution (HBSS) with 20 mM Hepes, pH 7.4 • 2. MP dye: Molecular Devices Corporation, Cat#8034 (for FLIPR) • 3. Positive control: ATP 10–100 μM (a purinergic receptor agonist) Calcimycin (A23187) 5–10 μM (a calcium ionophore) • 4. Antagonist control: • i. 2-APB 75 μM (from Tocris, TRP channel and IP3 receptor blocker); • ii. U73122 10 μM (from Sigma Chemicals, PLC inhibitor). Other Experimental Conditions • 1. The Cells: • iii. Maintenance: DMEM with 10% FCS and 200 μg/ml G418; Passaged 1–2 time/week with trypsin-EDTA. • iv. Confluency: 85–95% by the time of assay. • v. Plating: Regular or pre-coated plates; 24–48 h before assay. • vi. Passage: up to the 10th passage.

control (A1-5) CHO cells = assay: Membrane potential (MP) assay in control CHO cells (A1-5); type: cell-based, Chinese hamster; conditions: control CHO line (A1-5)
Experimental: as §1, §2
A CHO-K1 based stable cell line expressing βTRP (designated “Line A2-18” herein) is used for βTRP high throughput screening according to the follow protocol: • 1. Seed A2–18 βTrp-CHO cell and the control line (A1-5) to 96-well plates. • 2. Grow the cells for 24–48 h in DMEM medium to 85–95% confluency. • 3. Prepare following reagents immediately before the assay: • i. Assay buffer: dilute Component B of the FLIPR® assay kit and adjust pH to 7.4 with 1 N NaOH. No probenecid was needed. • ii. MP dye: suspend a vial of Component A of the FLIPR® assay kit with 10 ml of the assay buffer. • iii. Compound solutions: dilute DMSO stocks of the testing compounds to a 5× solution with the assay buffer. Raise Ca^2+ concentration in the compound solutions to 12.5 mM with 1 M CaCl2. • 4. Carefully remove the culture medium from all wells. • 5. Add 50 μl assay buffer and 50 μl MP dye. • 6. Incubate the plates at 37° C. for 30–60 minutes. • 7. Set the FLEXStation to MP assay mode and to 37° C. • 8. Transfer the cell plate and compound plate to FLEXStation. • 9. Record baseline for 18 sec (Ex 530, Em560). • 10. Add the 5× compound solutions to the cells and read another 100 sec. • 11. Save and analyze data. Reagent List • 1. Assay buffer: Hank's Balanced Salt Solution (HBSS) with 20 mM Hepes, pH 7.4 • 2. MP dye: Molecular Devices Corporation, Cat#8034 (for FLIPR) • 3. Positive control: ATP 10–100 μM (a purinergic receptor agonist) Calcimycin (A23187) 5–10 μM (a calcium ionophore) • 4. Antagonist control: • i. […]

Structure (SMILES) | depolarization / MP response in βTRP-CHO cells (βTRP) | depolarization / MP response in control cells (control (A1-5) CHO cells) | EC50 (βTRP) [µM] | other results
CCCCCCC[N+](CC)(CC)CCCCc1ccc(Cl)cc1 [Clofilium] | triggered depolarization | triggered depolarization |  | 
Nc1ncnc2c1ncn2[C@@H]1O[C@H](COP(=O)(O)OP(=O)(O)OP(=O)(O)O)[C@@H](O)[C@H]1O [ATP] | present only in βTRP cells; also recorded: dose-dependently induced depolarization | No effect | ~11 | 
NCCOB(c1ccccc1)c1ccccc1 [2-APB] |  |  |  | suppression of MP response to ATP (βTRP; inhibitor added at the same time as ATP): over 50%; suppression of MP response to calcimycin (βTRP; inhibitor added at the same time as calcimycin): over 50%
COc1ccc2c(c1)CC[C@@H]1[C@@H]2CC[C@]2(C)[C@@H](NCCCCCCN3C(=O)C=CC3=O)CC[C@@H]12 [U73122] |  |  |  | effect on ATP-induced MP response after pre-incubation (βTRP; 30 minute pre-incubation before ATP): inhibited
C=CC[C@H](C)[C@H](C)C[C@@H](O)[C@H](O)[C@@H]1CC[C@@]2(C)O[C@@]3(C)C[C@@]4(C)O[C@H]5/C=C\C[C@H]6O[C@H]7C[C@H]8O[C@H]9C[C@@]%10(C)O[C@@](C)([C@@H]%11CC[C@H]%12O[C@@]%13(C)C[C@H]%14O[C@@]%15(C)C[C@H]%16O[C@@]%17(C)C[C@@H](O)[C@H]([C@@H]%18O[C@H]%19[C@H](O)[C@@H](O)[C@H](C[C@H](O)C[C@@H](O)[C@@H]%20O[C@H]%21[C@H](O)[C@@H](O)[C@H]([C@@H]%22O[C@@H]%23[C@H](O)[C@H]%24O[C@H]%25C[C@H]%26O[C@@H](C[C@H](O)[C@@H](O)[C@H]%27O[C@H]%28[C@H](O)[C@H]%29O[C@H]%30C[C@H]%31O[C@H]%32[C@@H](O)[C@@H](O)[C@H]([C@H](C)[C@H](O)[C@H](C)CC[C@H](OS(=O)(=O)O)[C@H](O)[C@H](C)C[C@@H](O)C(=C)/C(C)=C/CO)O[C@@H]%32[C@H](O)C[C@]%31(C)O[C@@H]%30C[C@]%29(C)O[C@@H]%28C[C@H]%27O)[C@H](OS(=O)(=O)O)[C@H](O)[C@@H]%26O[C@@H]%25C[C@@H]%24O[C@H]%23[C@H](O)[C@H]%22O)O[C@H]%21C[C@H]%20O)O[C@H]%19C[C@H]%18O)O[C@@H]%17[C@H](O)[C@]%16(C)O[C@@H]%15CC[C@]%14(C)O[C@@H]%13C[C@@H]%12O%11)[C@H](O)C[C@@H]%10O[C@]9(C)CC[C@]8(C)O[C@]7(C)C[C@@H]6O[C@@H]5C[C@@H]4O[C@@H]3C[C@@H]2O1 [MTX, maitotoxin] |  |  |  | MP response at low Ca2+ (βTRP; 1.26 mM Ca2+ in assay buffer): lack of action; [Ca2+]i or MP increase at raised Ca2+ (βTRP; Ca2+ raised to 2.5–5 mM): significantly enhanced
CNc1ccc2oc(C[C@H]3O[C@@]4(CC[C@H]3C)O[C@H]([C@H](C)C(=O)c3ccc[nH]3)[C@H](C)C[C@H]4C)nc2c1C(=O)O [calcimycin, Calcimycin] | dose-dependently induced depolarization | No effect | ~0.8 | depolarization / MP response in βTRP-CHO cells (βTRP; listed as A23187): induced a βTRP cell specific depolarization
